Measurements: US11980626B2, “Compositions for treatment of breast and prostate cancer” (Kembi Therapeutics Pty Ltd, priority 2017, dated 2024)

How the values were obtained:
CYP17 [1] = assay: Endocrine profile (steroid hormone changes) in prostate cancer patients; assay type: in vivo, human; conditions: seviteronel 600 mg once daily, FIG. 7
Procedure: (§1) Males that fulfill the Inclusion Criteria captured in Table 1 were administered seviteronel (600 mg; 4×150 mg tablets) once daily until any of the criteria in Table 2 are met. Table 3 captures the clinical screening data and screening schedule for the various screens for each of the male subjects.
as §1, with “tablets) and dexamethasone (0.5 mg)” for “tablets)”
(§2) Blood samples were collected for evaluation of steroid hormone changes as a pharmacodynamics indicator of CYP17 inhibition over time e.g., DHEA, DHEA-S, androstenedione, testosterone, cortisol, corticosterone, progesterone, pregnenolone, estradiol, estrone and ACTH).

CYP17 [2] = assay: Progesterone response in ER+ breast cancer patients; assay type: in vivo, human; conditions: vs. patients treated with abiraterone and prednisone (Abi/Pred), FIG. 20
Procedure: as §1, with “Subjects” for “Males”, “4” for “1”, “mg for male subjects,” for “mg;”, “4×150 mg tablets; 450 mg for female subjects, 3×150” for “4×150”, “5” for “3”
Subjects that fulfill the Inclusion Criteria captured in Table 4 were administered seviteronel (600 mg for male subjects, 4×150 mg tablets; 450 mg for female subjects, 3×150 mg tablets) and dexamethasone (0.5 mg) once daily until any of the criteria in Table 2 are met. Table 5 captures the clinical screening data and screening schedule for the various screens for each of the male subjects.
as §2

`CC(C)C(O)(c1ccc2cc(OC(F)F)c(OC(F)F)cc2c1)c1c[nH]nn1` (centres unmarked) [SEVI, 1-(6,7-Bis(difluoromethoxy)naphthalen-2-yl)-2-methyl-1-(1H-1,2,3-triazol-4-yl)propan-1-ol] was tested, and the “"up-stream" steroids change” value (CYP17 [1]) was “limited increase”, the ACTH change (CYP17 [1]) was “modest ACTH increase” and the androgen change (CYP17 [1]) was “modest androgen decline”. For the same molecule, the cortisol change (CYP17 [1]) was “modest cortisol decrease” and the increase in progesterone (CYP17 [2]) was “lack of clinically relevant increase”.
